This is an account of results in ChEMBL document CHEMBL3045691, “Evaluation of rat kidney aldose reductase inhibitory activity of some N-acetyl dehydroalanine derivatives” (Med Chem Res, 2011).

The test has as its target Aldo-keto reductase family 1 member B1 (Rattus norvegicus) (UniProt P07943). Briefly: Inhibition of Rattus norvegicus albino (rat) kidney aldose reductase using D-L-glyceraldehyde as substrate assessed as decrease in NADPH concentration at 3.3 x 10^-6 M after 5 min by spectrophotometric analysis.
In general, inhibition refers to the relative decrease from the control value, in per cent. Regarding `C=C(NC(C)=O)C(=O)NC(C)CC` (stereo not given), the inhibition came to 0%.

In the case of `C=C(NC(C)=O)C(=O)Nc1nnc(CC)s1`, the inhibition came out at 4.5%.

With `C=C(NC(C)=O)C(=O)NCCC(C)C`, the inhibition amounted to 4.13%.

As for `C=C(NC(C)=O)C(=O)NCc1ccccc1Cl`, the inhibition worked out at 7.26%.

For `C=C(NC(C)=O)C(=O)NCCCCl`, the inhibition is 19.6%.

Regarding `C=C(NC(C)=O)C(=O)NCc1ccccc1`, the inhibition was found to be 2.48%.

Take `C=C(NC(C)=O)C(=O)NC(C)(C)CC`: the inhibition amounted to 3.22%.

As to `C=C(NC(C)=O)C(=O)NC(C)C`, the inhibition stood at 3.77%.

Take `C=C(NC(C)=O)C(=O)NCC`: the inhibition stood at 13.1%.

Take `C=C(NC(C)=O)C(=O)NCCC`: the inhibition was 4.32%.

On to `C=C(NC(C)=O)C(=O)N1CCCCC1`, for which the inhibition came out at 3.4%.

For the molecule `C=C(NC(C)=O)C(=O)NCc1ccccc1OC`, the inhibition stood at 0%.

Consider `C=C(NC(C)=O)C(=O)NCc1ccc(Cl)cc1`, for which the inhibition was 2.3%.

`C=C(NC(C)=O)C(=O)NC`: the inhibition was determined as 9.46%.

Turning to `C=C(NC(C)=O)C(=O)N1CCCC1`, the inhibition stood at 0%.
